Reference: patent EP0923292B1, “IMPROVED METHOD FOR SYSTEMIC ADMINISTRATION OF 2,4-DIENOIC ACID-TYPE INSECTICIDES TO TERRESTRIAL MAMMALS” (priority 1996, dated 1998)
Like-named read-outs stand apart in the source and are kept apart here.

How the values were obtained:
[1] = Methoprene blood concentrations in dogs following a single oral dose (gas chromatography); type: in vivo; conditions: single oral dose 50 mg/kg
Protocol: Six healthy mixed breed dogs, three male and three female, of weight ranging from 14 to 22 kg per dog and ages ranging from 2 to 5 years, were utilized. For each dog, a gelatin capsule containing a measured volume of (S)-methoprene was prepared, based on the dog's weight to yield a dose of 50 mg/kg of the dog's body weight in a single gelatin capsule for each dog. The dogs were fasted 24 hours before administration of their individual capsules, and dosing was achieved by placing the capsule in the back of each dog's throat and causing the dog to swallow. Food was then withheld for an additional 8 hours, although water was always available, and the dogs were fed once the following morning.
At each sampling time, 50 mL of blood was collected from the femoral vein of each dog into two 25-mL syringes. Samples were taken seven days prior to dosing (to establish a baseline), followed by three hours, 1 day, 2 days, 4 days, and 7 days after dosing.
To prepare the blood samples for methoprene content determinations, each 25-mL blood sample was mixed with 200 mL acetonitrile, 25 g anhydrous Na2SO4, and 10 g CELITE® in a blender for three one-minute segments, allowing the blender blades to cool for thirty seconds between segments. The mixture was then vacuum filtered, including a wash with 50 mL acetonitrile. The filtrate was extracted with petroleum ether for one minute, then diluted with 700 mL deionized water. To this was added 50 g NaCI and the solution was acidified to pH 2 with 0.5 N HCl. The aqueous phase was then discarded, and the petroleum ether phase was washed twice with 600 mL of deionized water. The petroleum ether was then filtered through a glass wool plug topped with 50 g Na2SO4. The Na2SO4 was then rinsed with 15 mL petroleum ether, and the extractant concentrated to 10 mL in a rotary evaporator, using a bath temperature of 30°C. The concentrated extractant was then stored in a refrigerator until the next step in the analysis.
Extraction columns were prepared by heat activating FLORISIL® (magnesium silicate absorbent) at 200°C for 24 hours, then allowing the FLORISIL to cool for 45 minutes, adding 5 mL of distilled water per 50 g of FLORISIL, shaking the mixture, and allowing it to equilibrate for 3 hours. A glass column with 28 mm intemal diameter was plugged with glass wool and filled with petroleum ether. A 1-cm layer of Na2SO4 was slowly poured into the column, followed by 6.5 cm of FLORISIL and 1.5 cm of Na2SO4. The petroleum ether was then drained until it reached the layer of Na2SO4. The extractant from the preceding paragraph was then loaded into the top of the column with a glass pipette, and its content rinsed with petroleum ether and added to the column. The column was then drained until the solvent layer was above the Na2SO4, and the eluant was discarded. Elution was then performed with 1 L of 5% diethyl ether/petroleum ether for each sample, and fractions of 175 mL and 825 mL were collected. The 825 mL fraction was then evaporated to 5 mL and stored in a refrigerator.
To prepare the 825 mL fraction for gas chromatography, one mL of internal standard was added to the sample, and the sample volume was evaporated to approximately 0.3 mL with nitrogen. Two aliquots of 5 µL each were injected on a gas chromatograph (Perkin Elmer, Sigma 300, with hydrogen flame ionization detector and data system) equipped with a 6-foot-by 1/4-inch glass column with 3% OV-101 Chrom W HP 100/120 mesh packing, using nitrogen at 60 mUmin as the carrier gas, and injector, column and detector temperatures of 300°C, 166°C, and 280°C, respectively.

adult cat fleas = assay: Flea ovicidal activity in vitro: artificial feeding system with treated beef blood (Examples 4 and 6); design: species or system C. felis; conditions: Ctenocephalides felis; for inhibition at 0.05 ppm: 0.05 ppm in beef blood; for inhibition at 0.075 ppm: 0.075 ppm in beef blood; for inhibition at 0.1 ppm: 0.1 ppm in beef blood; for inhibition at 0.25 ppm: 0.25 ppm in beef blood; for inhibition at 0.5 ppm: 0.5 ppm in beef blood
Text: For the in vitro tests, an artificial feeding system with cages for adult cat fleas C. felis was used as described by Wade, S.E., et al., J. Med. Ent. 25(3): 186-190 (May 1988). Inside each cage were placed 100 one-week-old, unfed adult C. fells. Each cage included a container for treated blood separated from the fleas by a PARAFILM® membrane, and a compartment containing thin strips of paper to support loosely arranged clean dog hair and to provide a foothold for the fleas as they fed on the blood through the membrane.
The artificial feeding system and cages for adult cat fleas described in Example 3 were used. Beef blood was used for the feeding system, and was prepared by adding 35 mL of a 20% sodium citrate solution per liter of blood to prevent clotting. A stock solution of lufenuron was prepared by adding 50.1 mg of technical lufenuron to 4.951 g of dimethyl sulfoxide (DMSO) to yield a 1.0% solution. A 1,000 ppm solution was then prepared by diluting 1.0 mL of the 1.0% solution in 9.0 mL of DMSO, and a 100 ppm solution was prepared by diluting 1.0 mL of the 1,000 ppm solution in 9.0 mL of DMSO. Dimethyl sulfoxide itself was used as a control. To treat the blood, the various solutions (0.05 mL) were added to the citrated beef blood (100.0 mL) to yield beef blood solutions containing 5.0 ppm, 0.5 ppm, 0.05 ppm, and 0.00 (zero) ppm lufenuron. Each solution was mixed thoroughly, and 10 mL at each concentration were placed in each of five feeders in the artificial feeding system to serve as replicates. Each day fresh blood solutions identical to the originals were placed in the feeders.
Flea eggs were collected from each replicate on days 3, 5 and 7. One hundred (100) healthy appearing […] were counted under a dissecting microscope from each replicate, divided into two subsamples per replicate, and placed in 60 mm x 15 mm plastic petri dishes. The samples were incubated at 78°F and 85% relative humidity for three days, then scored for larval hatch using by visual observation through the dissecting microscope. The data from all replicates at each concentration were combined to yield the mean percent egg hatch, and the percent inhibition of egg hatch was calculated relative to the control.
Retuming to (S)-methoprene, this example presents in vitro flea ovicidal activity using beef blood, for comparison with Example 4. Procedures using beef blood were the same as those indicated in the previous examples.

[2] = average over days, read-out: Percent Inhibition of Flea Egg Hatching, averages
[3] = 72 h, day 3, read-out: Percent Inhibition of Flea Egg Hatching
[4] = 120 h, day 5, read-out: Percent Inhibition of Flea Egg Hatching
[5] = 144 h, day 6, read-out: Percent Inhibition of Flea Egg Hatching
[6] = 240 h, day 10, read-out: Percent Inhibition of Flea Egg Hatching

Question: For `COC(C)(C)CCC[C@H](C)C/C=C/C(C)=C/C(=O)OC(C)C` [(S)-Methoprene, 1-isopropyl (E,E)-11-methoxy-3,7,11-trimethyl dodecadi-2,4-enoate], which concentration at 0 h ([1]; both sexes, mixed breed, dog, in vivo, mean of six dogs, 0 hours (baseline, seven days prior to dosing)) is on record?
Answer: 0 ng/mL

Question: And the concentration at 3 h ([1]; both sexes, mixed breed, dog, in vivo, mean of six dogs, 3 hours)?
Answer: 547 ng/mL

Question: And the concentration at 24 h ([1]; both sexes, mixed breed, dog, in vivo, mean of six dogs, 24 hours)?
Answer: 85 ng/mL

Question: What about the concentration at 48 h ([1]; both sexes, mixed breed, dog, in vivo, mean of six dogs, 48 hours) of the same compound?
Answer: 104 ng/mL

Question: And the “time by which methoprene level fell below detectable amounts” value ([1]; remaining four of the six dogs)?
Answer: ≤ 96 h

Question: What about the “time (S)-methoprene remains in the dogs' blood” value [1] of the same compound?
Answer: 48 to 96 h

Question: What about the “time by which methoprene level fell below detectable amounts” value ([1]; two of the six dogs) of the same compound?
Answer: ≤ 48 h

Question: What about the inhibition at 0.05 ppm (adult cat fleas; [2]) of the same compound?
Answer: 56.4%

Question: What about the inhibition at 0.075 ppm (adult cat fleas; average of a and b, read-out: Percent Inhibition of Flea Egg Hatching, averages) of the same compound?
Answer: 72%

Question: And the inhibition at 0.1 ppm (adult cat fleas; [2])?
Answer: 96.6%

Question: What about the inhibition at 0.25 ppm (adult cat fleas; [2]) of the same compound?
Answer: 99.5%

Question: What about the inhibition at 0.5 ppm (adult cat fleas; [2]) of the same compound?
Answer: 99.8%

Question: And the inhibition at 0.05 ppm (adult cat fleas; [3])?
Answer: 47.3%

Question: And the inhibition at 0.5 ppm (adult cat fleas; [3])?
Answer: 99.1%

Question: What about the inhibition at 0.1 ppm (adult cat fleas; [4]) of the same compound?
Answer: 97.4%

Question: And the inhibition at 0.25 ppm (adult cat fleas; [4])?
Answer: 100%

Question: And the inhibition at 0.1 ppm (adult cat fleas; [5])?
Answer: 95.7%

Question: And the inhibition at 0.25 ppm (adult cat fleas; [5])?
Answer: 99%

Question: What about the inhibition at 0.5 ppm (adult cat fleas; 168 h, day 7, read-out: Percent Inhibition of Flea Egg Hatching) of the same compound?
Answer: 100%

Question: What about the inhibition at 0.075 ppm (adult cat fleas; 192 h, day 8, entry a, read-out: Percent Inhibition of Flea Egg Hatching) of the same compound?
Answer: 66%

Question: What about the inhibition at 0.075 ppm (adult cat fleas; 192 h, day 8, entry b, read-out: Percent Inhibition of Flea Egg Hatching) of the same compound?
Answer: 78%

Question: What about the inhibition at 0.05 ppm (adult cat fleas; [6]) of the same compound?
Answer: 65.4%

Question: And the inhibition at 0.5 ppm (adult cat fleas; [6])?
Answer: 100%

Question: And the inhibition at 0.5 ppm (adult cat fleas; 312 h, day 13, read-out: Percent Inhibition of Flea Egg Hatching)?
Answer: 100%
